Experimental findings from patent publication US10233173B2, “Substituted 1,2,3-triazoles as NR2B-selective NMDA modulators” (JANSSEN PHARMACEUTICA NV, priority 2016, dated 2019) are described below.

The target in the first test is human GluN1/GluN2B NMDA receptors (Homo sapiens, UniProt Q05586+Q13224). Briefly: Cell-based calcium flux (FLIPR) assay on cloned human NR1/NR2B ion channels expressed in mammalian cells. The settings on record: standard assay; glutamate at ~EC80; FLIPR calcium flux. Here is the method: Effects of Test Articles on Cloned Human NR1/NR2B Ion Channels Expressed in Mammalian Cells
Sequence of human GluN1/GluN2B NMDA receptors (Q13224 27-1484, other chains not shown): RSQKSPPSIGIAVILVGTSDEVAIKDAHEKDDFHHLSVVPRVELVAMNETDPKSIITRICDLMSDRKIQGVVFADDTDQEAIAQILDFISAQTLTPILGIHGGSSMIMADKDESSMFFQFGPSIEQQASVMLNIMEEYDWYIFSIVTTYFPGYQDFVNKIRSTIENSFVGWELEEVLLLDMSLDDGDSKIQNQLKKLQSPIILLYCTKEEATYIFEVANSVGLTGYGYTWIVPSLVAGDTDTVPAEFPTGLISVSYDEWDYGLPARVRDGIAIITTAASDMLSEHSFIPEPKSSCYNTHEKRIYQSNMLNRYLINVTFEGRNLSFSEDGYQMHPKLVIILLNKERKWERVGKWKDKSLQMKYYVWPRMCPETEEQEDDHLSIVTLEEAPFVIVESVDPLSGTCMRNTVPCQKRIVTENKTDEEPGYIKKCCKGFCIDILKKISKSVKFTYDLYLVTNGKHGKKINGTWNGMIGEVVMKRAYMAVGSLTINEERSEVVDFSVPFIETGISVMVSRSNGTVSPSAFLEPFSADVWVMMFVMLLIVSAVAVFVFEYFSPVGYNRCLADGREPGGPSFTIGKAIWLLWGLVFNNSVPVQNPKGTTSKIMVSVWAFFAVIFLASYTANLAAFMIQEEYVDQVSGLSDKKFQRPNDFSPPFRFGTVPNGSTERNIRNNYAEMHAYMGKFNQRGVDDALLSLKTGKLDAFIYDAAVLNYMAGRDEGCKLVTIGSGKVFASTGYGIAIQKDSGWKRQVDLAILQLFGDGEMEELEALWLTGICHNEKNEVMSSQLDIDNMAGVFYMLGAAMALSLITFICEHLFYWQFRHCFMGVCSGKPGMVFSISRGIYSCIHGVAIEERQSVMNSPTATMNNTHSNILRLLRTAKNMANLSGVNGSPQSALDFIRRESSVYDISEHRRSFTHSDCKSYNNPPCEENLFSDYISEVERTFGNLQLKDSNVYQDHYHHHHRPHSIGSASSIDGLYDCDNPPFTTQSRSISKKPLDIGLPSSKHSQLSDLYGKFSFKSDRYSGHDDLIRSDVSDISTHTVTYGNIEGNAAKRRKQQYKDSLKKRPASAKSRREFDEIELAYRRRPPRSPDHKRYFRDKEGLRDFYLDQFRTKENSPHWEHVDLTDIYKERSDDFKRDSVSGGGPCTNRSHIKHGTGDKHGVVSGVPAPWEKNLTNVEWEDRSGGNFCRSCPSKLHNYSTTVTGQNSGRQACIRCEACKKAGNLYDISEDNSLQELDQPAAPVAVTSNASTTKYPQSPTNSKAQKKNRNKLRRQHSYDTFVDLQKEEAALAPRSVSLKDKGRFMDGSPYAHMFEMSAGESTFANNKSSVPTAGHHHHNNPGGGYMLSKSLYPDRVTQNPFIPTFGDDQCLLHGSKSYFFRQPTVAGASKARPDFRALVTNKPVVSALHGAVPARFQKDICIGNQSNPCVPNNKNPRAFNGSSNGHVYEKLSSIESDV
NMDA receptors are ion channels that are highly permeable to Ca^2+ ions, rendering it possible to monitor NMDA receptor function using cell-based calcium flux assay. In this assay, co-agonists glutamate and glycine are added to cells heterologously expressing human GluN1/GluN2B NMDA receptors to initiate cellular Ca^2+ influx. The time course of the changes in intracellular calcium is measured using a fluorescent dye and a FLIPR (Fluorometric Imaging Plate Reader) device.
Twenty four hours before measurements, the expression of the NMDA receptors in the stable cell line is induced with Tet-On inducible system in the presence of a non-selective NMDA receptor blocker. On the day of the experiment, cell culture media is carefully washed and the cells are loaded with Calcium 5 Dye Kit (Molecular Devices) in dye loading buffer containing 149 mM NaCl, 4 mM KCl, 2 mM CaCl2, and 1.5 mM MgCl2, 10 mM HEPES and 5 mM D-glucose; pH 7.4. After 1 h incubation at the room temperature, the dye is washed away with the assay buffer (149 mM NaCl (standard assay) or 150 mM (HTS assay), 4 mM KCl (standard assay) or 3 mM (HTS assay), 2 mM CaCl2, 0.01 mM EDTA, 10 mM HEPES and 5 mM D-glucose; pH 7.4) In the FLIPR TETRA reader, various concentrations of the test compounds are added to the cells for 5 min while fluorescence is monitored to detect potential agonist activity. Next, co-agonists, glutamate and glycine are added for another 5 minutes. The concentration of glutamate corresponding to ˜EC80 (standard assay) or EC40 (HTS assay) is used to maximize the assay's signal window or the ability to detect NMDA receptor antagonists and negative allosteric modulators, respectively. A saturating concentration (10 μM) of glycine is also present in the assay. […] The fluorescent signal in the presence of test compounds is quantified and normalized to the signal defined by the appropriate control wells.
Broadly, the IC50 is the concentration at which inhibition is half-maximal. Consider `Cc1cc(-n2cc(COc3ncc(C(F)F)cn3)nn2)c(F)cc1F` [Example 656, 5-(Difluoromethyl)-2-[[1-(2,4-difluoro-5-methyl-phenyl)triazol-4-yl]methoxy]pyrimidine], for which the IC50 is 1.51 µM. As for `Cc1cc(-n2cc(COc3ncc(F)cn3)nn2)ccc1F` [Example 474, 5-Fluoro-2-[[1-(4-fluoro-3-methyl-phenyl)triazol-4-yl]methoxy]pyrimidine], the IC50 was 0.022 µM. The same measure, in the same setting: as for `CC(F)(F)c1cc(-n2cc(COc3nccc(N)n3)nn2)ccc1Cl` [Example 547, 2-[[1-[4-Chloro-3-(1,1-difluoroethyl)phenyl]triazol-4-yl]methoxy]pyrimidin-4-amine], the figure is 0.033 µM; as for `CC(C)(O)c1ccc(OCc2cn(-c3ccc(F)c(C(F)(F)F)c3)nn2)nc1` [Example 433, 2-[6-[[1-[4-Fluoro-3-(trifluoromethyl)phenyl]triazol-4-yl]methoxy]-3-pyridyl]propan-2-ol], 1.11 µM. Regarding `CCc1cnc(OCc2cn(-c3ccc(F)cc3C)nn2)nc1` [Example 491, 5-Ethyl-2-[[1-(4-fluoro-2-methyl-phenyl)triazol-4-yl]methoxy]pyrimidine], the half-maximal inhibitory concentration (IC50) stood at 1.17 µM. The same measure, in the same setting: as for `CC(F)(F)c1cc(-n2cc(COc3ncc(N4CC(F)C4)cn3)nn2)ccc1F` [Example 589, 2-((1-(3-(1,1-Difluoroethyl)-4-fluorophenyl)-1H-1,2,3-triazol-4-yl)methoxy)-5-(3-fluoroazetidin-1-yl)pyrimidine], the figure is 0.013 µM; as for `COc1cnc(OCc2cn(-c3ccc(C(F)(F)F)s3)nn2)nc1` [Example 669, 5-Methoxy-2-((1-(5-(trifluoromethyl)thiophen-2-yl)-1H-1,2,3-triazol-4-yl)methoxy)pyrimidine], 0.004 µM. The same measure, in the same setting: as for `Cc1nc(OCc2cn(-c3ccc(F)c(C(F)(F)F)c3)nn2)ncc1F` [Example 445, 5-Fluoro-2-[[1-[4-fluoro-3-(trifluoromethyl)phenyl]triazol-4-yl]methoxy]-4-methyl-pyrimidine], the figure is 0.006 µM. Still for that read-out and setting: as for `CCNc1cnc(OCc2cn(-c3ccc(F)c(C(F)(F)F)c3)nn2)nc1C` [Example 458, 2-((1-(3-(Trifluoromethyl)-4-fluorophenyl)-1H-1,2,3-triazol-4-yl)methoxy)-N-ethyl-4-methylpyrimidin-5-amine], the figure is 0.439 µM.

For the compound `Cc1ccc(-n2cc(COc3ncc(C)c(N)n3)nn2)cc1OC(F)F` [Example 521, 2-[[1-[3-(Difluoromethoxy)-4-methyl-phenyl]triazol-4-yl]methoxy]-5-methyl-pyrimidin-4-amine], the IC50 was 0.021 µM. With `CC(F)(F)c1cc(-n2cc(COc3ncc(C(C)(O)C(F)(F)F)cn3)nn2)ccc1Cl` (racemic) [Example 539, (R/S)-2-[2-[[1-[4-Chloro-3-(1,1-difluoroethyl)phenyl]triazol-4-yl]methoxy]pyrimidin-5-yl]-1,1,1-trifluoro-propan-2-ol], the concentration for half-maximal inhibition (IC50) worked out at 0.45 µM. The same measure, in the same setting: as for `COCc1ccnc(OCc2cn(-c3ccc(F)c(OC(F)F)c3)nn2)n1` [Example 499, 2-[[1-[3-(Difluoromethoxy)-4-fluoro-phenyl]triazol-4-yl]methoxy]-4-(methoxymethyl)pyrimidine], the figure is 0.016 µM. On the same count and under the same terms, as for `CC(F)(F)c1cc(-n2cc(COc3nccc(C(F)(F)F)n3)nn2)ccc1F` [Example 564, 2-[[1-[3-(1,1-Difluoroethyl)-4-fluoro-phenyl]triazol-4-yl]methoxy]-4-(trifluoromethyl)pyrimidine], the figure is 0.272 µM; as for `Fc1ccc(-n2cc(COc3ncccn3)nn2)cc1F` [Example 597, 2-[[1-(3,4-Difluorophenyl)triazol-4-yl]methoxy]pyrimidine], 2.1 µM. Still for that read-out and setting: as for `Cc1ccc(-n2cc(COc3ncc(C(C)(C)O)cn3)nn2)cc1OC(F)F` [Example 526, 2-[2-[[1-[3-(Difluoromethoxy)-4-methyl-phenyl]triazol-4-yl]methoxy]pyrimidin-5-yl]propan-2-ol], the figure is 0.425 µM; as for `Cc1nc(OCc2cn(-c3ccc(F)c(OC(F)F)c3)nn2)ncc1F` [Example 493, 2-[[1-[3-(Difluoromethoxy)-4-fluoro-phenyl]triazol-4-yl]methoxy]-5-fluoro-4-methyl-pyrimidine], 0.004 µM; as for `Cc1ccc(OCc2cn(-c3ccc(F)c(C(C)(F)F)c3)nn2)nc1` [Example 558, 2-[[1-[3-(1,1-Difluoroethyl)-4-fluoro-phenyl]triazol-4-yl]methoxy]-5-methyl-pyridine], 0.125 µM.

For the compound `COc1cnc(OCc2cn(-c3ccc(F)cc3C)nn2)nc1` [Example 488, 2-[[1-(4-Fluoro-2-methyl-phenyl)triazol-4-yl]methoxy]-5-methoxy-pyrimidine], the IC50 worked out at 2.65 µM. Same read-out and setting: as for `Cc1nc(OCc2cn(-c3cccc(F)c3C)nn2)ncc1F` [Example 465, 5-Fluoro-2-[[1-(3-fluoro-2-methyl-phenyl)triazol-4-yl]methoxy]-4-methyl-pyrimidine], the figure is 3.72 µM.

The same test, now with this note: standard assay; human GluN1/GluN2B, calcium flux (FLIPR), glutamate ~EC80.
For the compound `COc1cnc(OCc2cn(-c3ccc(Cl)c(OC(F)F)c3)nn2)nc1` [Example 26, 2-[[1-[4-Chloro-3-(difluoromethoxy)phenyl]triazol-4-yl]methoxy]-5-methoxy-pyrimidine], the 50% inhibitory concentration (IC50) is 0.003 µM. Still for that read-out and setting: as for `Fc1cccc(-n2cc(COc3ncccn3)nn2)c1` [Example 228, 2-[[1-(3-Fluorophenyl)triazol-4-yl]methoxy]pyrimidine], the figure is 5.65 µM; as for `Fc1ccc(-n2cc(CNc3ncccn3)nn2)cc1OC(F)F` [Example 36, N-[[1-[3-(Difluoromethoxy)-4-fluoro-phenyl]triazol-4-yl]methyl]pyrimidin-2-amine], 0.351 µM. As to `CN(C)c1ccnc(OCc2cn(-c3cccc(C(F)F)c3)nn2)n1` [Example 277, 2-[[1-[3-(Difluoromethyl)phenyl]triazol-4-yl]methoxy]-N,N-dimethyl-pyrimidin-4-amine], the half-maximal inhibitory concentration (IC50) was determined as 0.041 µM. Take `COc1cnc(NCc2cn(-c3ccc(Cl)c(C(F)F)c3)nn2)nc1` [Example 203, N-[[1-[4-Chloro-3-(difluoromethyl)phenyl]triazol-4-yl]methyl]-5-methoxy-pyrimidin-2-amine]: the IC50 was 0.03 µM. On the same count and under the same terms, as for `CC(O)c1cnc(OCc2cn(-c3cccc(C(C)(F)F)c3)nn2)nc1` (racemic) [Example 310, (R/S)-1-[2-[[1-[3-(1,1-Difluoroethyl)phenyl]triazol-4-yl]methoxy]pyrimidin-5-yl]ethanol], the figure is 0.037 µM; as for `Cc1ccnc(OCc2cn(-c3ccc(F)c(C(C)(F)F)c3)nn2)n1` [Example 79, 2-[[1-[3-(1,1-Difluoroethyl)-4-fluoro-phenyl]triazol-4-yl]methoxy]-4-methyl-pyrimidine], 0.007 µM.

In the case of `Cc1cnc(OCc2cn(-c3cccc(C(F)F)c3)nn2)nc1N` [Example 161, 2-[[1-[3-(Difluoromethyl)phenyl]triazol-4-yl]methoxy]-5-methyl-pyrimidin-4-amine], the IC50 amounted to 0.055 µM.

`FC(F)Oc1cc(-n2cc(COc3cnccn3)nn2)ccc1Cl` [Example 23, 2-[[1-[4-Chloro-3-(difluoromethoxy)phenyl]triazol-4-yl]methoxy]pyrazine]: the IC50 is 0.456 µM.

As for `Fc1ccc(-n2cc(CNc3ccccn3)nn2)cc1C(F)F` [Example 215, N-((1-(3-(Difluoromethyl)-4-fluorophenyl)-1H-1,2,3-triazol-4-yl)methyl)pyridin-2-amine], the concentration for half-maximal inhibition (IC50) came out at 0.986 µM.

In the case of `Fc1cccc(-n2cc(COc3ncc(Cl)cn3)nn2)c1` [Example 231, 5-Chloro-2-[[1-(3-fluorophenyl)triazol-4-yl]methoxy]pyrimidine], the IC50 stood at 0.389 µM.

Regarding `Cn1ccc(-c2cnc(OCc3cn(-c4ccc(F)c(C(C)(F)F)c4)nn3)nc2)n1` [Example 184, 2-[[1-[3-(1,1-Difluoroethyl)-4-fluoro-phenyl]triazol-4-yl]methoxy]-5-(1-methylpyrazol-3-yl)pyrimidine], the IC50 came to 0.309 µM. Still for that read-out and setting: as for `C[C@@H](Oc1ncc(Cl)cn1)c1cn(-c2ccc(Cl)c(OC(F)F)c2)nn1` [Example 375, 5-Chloro-2-[(1R)-1-[1-[4-chloro-3-(difluoromethoxy)phenyl]triazol-4-yl]ethoxy]pyrimidine], the figure is 0.01 µM; as for `CCc1cnc(NCc2cn(-c3ccc(F)c(C(C)(F)F)c3)nn2)nc1` [Example 207, N-[[1-[3-(1,1-Difluoroethyl)-4-fluoro-phenyl]triazol-4-yl]methyl]-5-ethyl-pyrimidin-2-amine], 0.128 µM; as for `FC(F)c1cc(-n2cc(CNc3ncc(C(F)(F)F)cn3)nn2)ccc1Cl` [Example 205, N-[[1-[4-Chloro-3-(difluoromethyl)phenyl]triazol-4-yl]methyl]-5-(trifluoromethyl)pyrimidin-2-amine], 0.616 µM.
